Source: patent US10112937B2, “P2X7 modulators and methods of use” (Janssen Pharmaceutica NV, priority 2013, dated 2018)

Each molecule was assayed against human P2X7 (Homo sapiens (Human), UniProt Q99572) (assay: P2X7 antagonism in human PBMCs (IL-1β release after LPS + Bz-ATP, ELISA)). Conditions: human PBMCs, test compound 10 μM.
Format: cell-based

Sequence of human P2X7 (Q99572 whole entry): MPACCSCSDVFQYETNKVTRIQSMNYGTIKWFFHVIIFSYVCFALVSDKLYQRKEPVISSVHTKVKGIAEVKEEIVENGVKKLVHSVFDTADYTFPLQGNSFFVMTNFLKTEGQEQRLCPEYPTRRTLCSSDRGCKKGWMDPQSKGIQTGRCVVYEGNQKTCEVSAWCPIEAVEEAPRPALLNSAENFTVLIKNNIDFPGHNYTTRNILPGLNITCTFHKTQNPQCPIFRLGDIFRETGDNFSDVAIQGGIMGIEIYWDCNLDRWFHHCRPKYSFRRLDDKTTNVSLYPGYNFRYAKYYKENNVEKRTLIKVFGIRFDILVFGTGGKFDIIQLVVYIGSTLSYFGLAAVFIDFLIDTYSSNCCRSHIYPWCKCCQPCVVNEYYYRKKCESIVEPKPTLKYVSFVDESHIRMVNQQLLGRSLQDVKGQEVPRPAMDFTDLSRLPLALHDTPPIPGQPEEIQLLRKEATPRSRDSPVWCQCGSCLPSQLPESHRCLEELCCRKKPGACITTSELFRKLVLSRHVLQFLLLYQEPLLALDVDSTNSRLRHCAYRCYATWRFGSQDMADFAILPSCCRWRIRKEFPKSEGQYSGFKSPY

SMILES | PBMC 10 μM (% control)
Cc1c(C(=O)N2CCc3c(nnn3-c3ncccn3)[C@H]2C)cccc1C(F)(F)F (single isomer, unassigned) [Example 188, (R*)-(4-methyl-1-(pyrimidin-2-yl)-6,7-dihydro-1H-[1,2,3]triazolo[4,5-c]pyridin-5(4H)-yl)(2-methyl-3-(trifluoromethyl)phenyl)methanone] | −0.7
C[C@@H]1c2nnn(-c3ncc(F)cn3)c2CCN1C(=O)c1cccc(C(F)(F)F)c1F (single isomer, unassigned) [Example 190, (R*)-(2-fluoro-3-(trifluoromethyl)phenyl)(1-(5-fluoropyrimidin-2-yl)-4-methyl-6,7-dihydro-1H-[1,2,3]triazolo[4,5-c]pyridin-5(4H)-yl)methanone] | 7.1
C[C@H]1c2ncn(-c3ccccn3)c2CCN1C(=O)c1cccc(Cl)c1Cl (single isomer, unassigned) [Example 191, (S*)-(2,3-Dichlorophenyl)(4-methyl-1-(pyridin-2-yl)-6,7-dihydro-1H-imidazo[4,5-c]pyridin-5(4H)-yl)methanone] | 5.2
C[C@@H]1c2ncn(-c3ccccn3)c2CCN1C(=O)c1cccc(Cl)c1Cl (single isomer, unassigned) [Example 192, (R*)-(2,3-Dichlorophenyl)(4-methyl-1-(pyridin-2-yl)-6,7-dihydro-1H-imidazo[4,5-c]pyridin-5(4H)-yl)methanone] | −6.3
C[C@@H]1c2ncn(-c3ncc(F)cn3)c2CCN1C(=O)c1cccc(C(F)(F)F)c1Cl (single isomer, unassigned) [Example 193, (R*)-(2-Chloro-3-(trifluoromethyl)phenyl)(1-(5-fluoropyrimidin-2-yl)-4-methyl-6,7-dihydro-1H-imidazo[4,5-c]pyridin-5(4H)-yl)methanone] | 1.4
C[C@H]1Cc2c(nnn2-c2cc(F)ccn2)CN1C(=O)c1cccc(Cl)c1Cl (single isomer, unassigned) [Example 196, (6S*)-5-[(2,3-Dichlorophenyl)carbonyl]-1-(4-fluoropyridin-2-yl)-6-methyl-4,5,6,7-tetrahydro-1H-[1,2,3]triazolo[4,5-c]pyridine] | −3.1
Cc1c(C(=O)N2CCc3c(nnn3-c3ncccn3)[C@@H]2C)cccc1C(F)(F)F (single isomer, unassigned) [Example 197, (S*)-(4-methyl-1-(pyrimidin-2-yl)-6,7-dihydro-1H-[1,2,3]triazolo[4,5-c]pyridin-5(4H)-yl)(2-methyl-3-(trifluoromethyl)phenyl)methanone] | 2.1
C[C@@H]1Cc2c(nnn2-c2cc(F)ccn2)CN1C(=O)c1cccc(C(F)(F)F)c1Cl (single isomer, unassigned) [Example 198, (6R*)-5-{[2-Chloro-3-(trifluoromethyl)phenyl]carbonyl}-1-(4-fluoropyridin-2-yl)-6-methyl-4,5,6,7-tetrahydro-1H-[1,2,3]triazolo[4,5-c]pyridine] | 1.3

The next lines start with the values.

PBMC 10 μM (% control) | SMILES
0.0 | C[C@H]1Cc2c(nnn2-c2cc(F)ccn2)CN1C(=O)c1cccc(C(F)(F)F)c1Cl (single isomer, unassigned) [Example 199, (6S*)-5-{[2-Chloro-3-(trifluoromethyl)phenyl]carbonyl}-1-(4-fluoropyridin-2-yl)-6-methyl-4,5,6,7-tetrahydro-1H-[1,2,3]triazolo[4,5-c]pyridine]
45.0 | Cc1c(C(=O)N2Cc3nnn(-c4ncc(F)cn4)c3C[C@H]2C)cccc1C(F)(F)F (single isomer, unassigned) [Example 207, (6R*)-1-(5-Fluoropyrimidin-2-yl)-6-methyl-5-{[2-methyl-3-(trifluoromethyl)phenyl]carbonyl}-4,5,6,7-tetrahydro-1H-[1,2,3]triazolo[4,5-c]pyridine]
8.2 | C[C@@H]1Cc2c(nnn2-c2ncc(F)cn2)CN1C(=O)c1ccc(F)c(Cl)c1Cl (single isomer, unassigned) [Example 214, (6R*)-5-[(2,3-Dichloro-4-fluorophenyl)carbonyl]-1-(5-fluoropyrimidin-2-yl)-6-methyl-4,5,6,7-tetrahydro-1H-[1,2,3]triazolo[4,5-c]pyridine]
2.7 | C[C@H]1Cc2c(nnn2-c2ncc(F)cn2)CN1C(=O)c1ccc(F)c(Cl)c1Cl (single isomer, unassigned) [Example 215, (6S*)-5-[(2,3-Dichloro-4-fluorophenyl)carbonyl]-1-(5-fluoropyrimidin-2-yl)-6-methyl-4,5,6,7-tetrahydro-1H-[1,2,3]triazolo[4,5-c]pyridine]
6.1 | C[C@H]1Cc2c(nnn2-c2ncc(F)cn2)CN1C(=O)c1ccc(Cl)c(F)c1Cl (single isomer, unassigned) [Example 218, (6S*)-5-[(2,4-Dichloro-3-fluorophenyl)carbonyl]-1-(5-fluoropyrimidin-2-yl)-6-methyl-4,5,6,7-tetrahydro-1H-[1,2,3]triazolo[4,5-c]pyridine]
1.8 | C[C@@H]1c2n[nH]c(-c3ncc(F)cn3)c2CCN1C(=O)c1cccc(C(F)(F)F)c1Cl (single isomer, unassigned) [Example 223, (R*)-(2-chloro-3-(trifluoromethyl)phenyl)(3-(5-fluoropyrimidin-2-yl)-7-methyl-4,5-dihydro-2H-pyrazolo[3,4-c]pyridin-6(7H)-yl)methanone]
58.0 | Cc1cccc(-n2nnc3c2CCN(C(=O)c2cccc(C(F)(F)F)c2Cl)[C@@H]3C)n1 (single isomer, unassigned) [Example 226, (R*)-(2-chloro-3-(trifluoromethyl)phenyl)(4-methyl-1-(6-methylpyridin-2-yl)-6,7-dihydro-1H-[1,2,3]triazolo[4,5-c]pyridin-5(4H)-yl)methanone]
−0.4 | Cc1cccc(-n2nnc3c2CCN(C(=O)c2cccc(C(F)(F)F)c2Cl)[C@H]3C)n1 (single isomer, unassigned) [Example 227, (S*)-(2-chloro-3-(trifluoromethyl)phenyl)(4-methyl-1-(6-methylpyridin-2-yl)-6,7-dihydro-1H-[1,2,3]triazolo[4,5-c]pyridin-5(4H)-yl)methanone]
7.5 | C[C@H]1Cc2c(nnn2-c2ncc(F)cn2)CN1C(=O)c1cc(C(F)(F)F)ccc1F (single isomer, unassigned) [Example 232, (S*)-(2-fluoro-5-(trifluoromethyl)phenyl)(1-(5-fluoropyrimidin-2-yl)-6-methyl-6,7-dihydro-1H-[1,2,3]triazolo[4,5-c]pyridin-5(4H)-yl)methanone]
5.1 | COCCn1ccc(-n2nnc3c2CCN(C(=O)c2cccc(C(F)(F)F)c2Cl)[C@H]3C)n1 (single isomer, unassigned) [Example 249, (S*)-(2-Chloro-3-(trifluoromethyl)phenyl)(1-(1-(2-methoxyethyl)-1H-pyrazol-3-yl)-4-methyl-6,7-dihydro-1H-[1,2,3]triazolo[4,5-c]pyridin-5(4H)-yl)methanone]

Same assay, conditions: test compound 10 μM, LPS 30 ng/ml + 0.5 mM Bz-ATP

SMILES | PBMC 10 μM (% control)
Cc1c(C(=O)N2CCc3c(nnn3-c3ncccn3)[C@H]2C)cccc1C(F)(F)F (single isomer, unassigned) [Example 188, (R*)-(4-methyl-1-(pyrimidin-2-yl)-6,7-dihydro-1H-[1,2,3]triazolo[4,5-c]pyridin-5(4H)-yl)(2-methyl-3-(trifluoromethyl)phenyl)methanone] | −0.7
C[C@@H]1c2ncn(-c3ccccn3)c2CCN1C(=O)c1cccc(Cl)c1Cl (single isomer, unassigned) [Example 192, (R*)-(2,3-Dichlorophenyl)(4-methyl-1-(pyridin-2-yl)-6,7-dihydro-1H-imidazo[4,5-c]pyridin-5(4H)-yl)methanone] | −6.3
C[C@@H]1c2ncn(-c3ncc(F)cn3)c2CCN1C(=O)c1cccc(C(F)(F)F)c1Cl (single isomer, unassigned) [Example 193, (R*)-(2-Chloro-3-(trifluoromethyl)phenyl)(1-(5-fluoropyrimidin-2-yl)-4-methyl-6,7-dihydro-1H-imidazo[4,5-c]pyridin-5(4H)-yl)methanone] | 1.4
